The target of experiment [1] is T1, Growth hormone secretagogue receptor type 1 (Homo sapiens, UniProt Q92847). Nature of the experiment: Displacement of [35S]MK677 from human ghrelin receptor expressed in african green monkey COS7 cells. The class given is cell-based, COS-7. On the technique in general: In a radioligand displacement assay an active substance lowers the binding of a labelled ligand.

For experiment [2], the target named is T1, Growth hormone secretagogue receptor type 1. Nature of the experiment: Inverse agonist activity at human ghrelin receptor expressed in african green monkey COS7 cells assessed as constitutively stimulated inositol phosphate accumulation. In kind it is functional, cell-based, COS-7.

T1 sequence (Q92847 whole entry): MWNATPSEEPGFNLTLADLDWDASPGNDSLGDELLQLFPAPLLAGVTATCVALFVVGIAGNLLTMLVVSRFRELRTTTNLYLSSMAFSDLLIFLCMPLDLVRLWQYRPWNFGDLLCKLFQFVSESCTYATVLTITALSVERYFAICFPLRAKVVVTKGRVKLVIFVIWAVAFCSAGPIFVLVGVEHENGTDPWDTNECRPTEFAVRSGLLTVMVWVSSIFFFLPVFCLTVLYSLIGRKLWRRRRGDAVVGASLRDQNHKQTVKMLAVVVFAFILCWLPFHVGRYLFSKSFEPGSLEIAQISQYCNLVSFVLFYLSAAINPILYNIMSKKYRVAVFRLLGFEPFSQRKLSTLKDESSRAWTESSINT

Broadly, the IC50 is the concentration at which inhibition is half-maximal. With `CC(C)C[C@H](NC(=O)[C@H](CC(C)C)NC(=O)[C@@H](Cc1c[nH]c2ccccc12)NC(=O)[C@H](Cc1ccccc1)NC(=O)[C@@H](Cc1c[nH]c2ccccc12)NC(=O)[C@@H](N)CCCN=C(N)N)C(N)=O`, the IC50 in experiment [1] is 12 nM; in experiment [2], 21 nM.
Turning to `CC(C)C[C@H](NC(=O)[C@H](CC(C)C)NC(=O)[C@@H](Cc1c[nH]c2ccccc12)NC(=O)[C@H](Cc1ccccc1)NC(=O)[C@@H](Cc1c[nH]c2ccccc12)NC(=O)[C@@H](N)Cc1cnc[nH]1)C(N)=O`, the IC50 in experiment [1] was found to be 58 nM; in experiment [2], 68 nM.

For the origin of these results see ChEMBL document CHEMBL1156448, “Identification of an efficacy switch region in the ghrelin receptor responsible for interchange between agonism and inverse agonism” (J Biol Chem, 2007).
